From patent US9593118B2, “Xanthine-substituted alkynyl carbamates/reverse carbamates as A2B antagonists” (Lewis and Clark Pharmaceuticals, Inc., priority 2015, dated 2017)

Molecular target: T1, A2B adenosine receptor (Homo sapiens, UniProt P29275)
T1 construct: An endogenous A2B adenosine receptor coupled to cyclic AMP generation in human embryonic kidney (HEK-293) cells; endogenous in cells
T1 sequence (P29275 1-332): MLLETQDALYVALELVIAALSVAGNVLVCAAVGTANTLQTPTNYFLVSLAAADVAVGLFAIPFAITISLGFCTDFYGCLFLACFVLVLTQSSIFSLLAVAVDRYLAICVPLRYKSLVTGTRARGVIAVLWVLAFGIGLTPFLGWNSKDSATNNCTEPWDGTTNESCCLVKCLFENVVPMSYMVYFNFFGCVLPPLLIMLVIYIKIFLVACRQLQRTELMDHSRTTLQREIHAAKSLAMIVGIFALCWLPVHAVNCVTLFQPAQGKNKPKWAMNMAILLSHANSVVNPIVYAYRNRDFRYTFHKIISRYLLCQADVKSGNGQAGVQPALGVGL
Assay: A2B antagonist cAMP assay (inhibition of the NECA response, HTRF)
Type: cell-based
Conditions: test compound at 1×10^−7M; percent inhibition of the control response to 1 μM NECA (cAMP)
Method: Representative compounds of the present invention have been tested for their activity as A2B antagonists and shown to be active. These values were obtained by using the following methodology.
The cells are suspended in HBSS buffer (Invitrogen) complemented with 20 mM HEPES (pH 7.4), then distributed in microplates at a density of 5×10^3 cells/well and preincubated for 5 min at room temperature in the presence of HBSS (basal control), the test compound or the reference antagonist. Thereafter, the reference agonist NECA is added at a final concentration of 1 μM. […] Following 10 min incubation at 37° C., the cells are lysed and the fluorescence acceptor (D2-labeled cAMP) and fluorescence donor (anti-cAMP antibody labeled with europium cryptate) are added. After 60 min at room temperature, the fluorescence transfer is measured at λex=337 nm and λem=620 and 665 nm using a microplate reader (Rubystar, BMG). The cAMP concentration is determined by dividing the signal measured at 665 nm by that measured at 620 nm (ratio). The results are expressed as a percent inhibition of the control response to 1 μM NECA. The standard reference antagonist is XAC, which is tested in each experiment at several concentrations to generate a concentration-response curve from which its IC50 value is calculated.
Reference: Cooper, J., Hill, S. J., and Alexander, S. P. H. (1997), An endogenous A2B adenosine receptor coupled to cyclic AMP generation in human embryonic kidney (HEK-293) cells, Brit. J. Pharmacol., 122: 546.

Compound | inhibition at 0.1 µM [%]
COc1ccccc1OC(=O)N(C)CC#Cc1nc2c([nH]1)c(=O)n(C1CC1)c(=O)n2C1CC1 [Example 5, 1,3-Dicyclopropyl-8-(3-(methyl((2-methoxyphenoxy)carbonyl)amino)prop-1-yn-1-yl)xanthine] | > 5
CN(CC#Cc1nc2c([nH]1)c(=O)n(C1CC1)c(=O)n2C1CC1)C(=O)Oc1ccccc1 [Example 3, 1,3-Dicyclopropyl-8-(3-(methyl(phenoxycarbonyl)amino)prop-1-yn-1-yl)xanthine] | > 5
CN(CC#Cc1nc2c([nH]1)c(=O)n(C1CC1)c(=O)n2C1CC1)C(=O)Oc1cccc(C(F)(F)F)c1 [Example 4, 1,3-Dicyclopropyl-8-(3-(methyl((3-(trifluoromethyl)phenoxy)carbonyl)-amino)prop-1-yn-1-yl)xanthine] | > 5
CN(CC#Cc1nc2c([nH]1)c(=O)n(C1CC1)c(=O)n2C1CC1)C(=O)Oc1ccccc1Cl [Example 6, 8-(3-(((2-Chlorophenoxy)carbonyl)(methyl)amino)prop-1-yn-1-yl)-1,3-dicyclopropylxanthine] | > 5
CCCn1c(=O)n(C2CC2)c(=O)c2[nH]c(C#CCN(C)C(=O)Oc3ccc(F)cc3)nc21 [Example 2, 1-Cyclopropyl-3-propyl-8-(3-(methyl((4-fluorophenoxy)carbonyl)amino)prop-1-yn-1-yl)xanthine] | > 20
CN(C(=O)OCC#Cc1nc2c([nH]1)c(=O)n(C1CC1)c(=O)n2C1CC1)c1ccc(Cl)cc1 [Example 8, 8-(3-(((4-Chlorophenyl)(methyl)carbamoyl)oxy)prop-1-yn-1-yl)-1,3-dicyclopropylxanthine] | > 20
CN(C(=O)OCC#Cc1nc2c([nH]1)c(=O)n(C1CC1)c(=O)n2C1CC1)c1ccccc1 [Example 7, 1,3-Dicyclopropyl-8-(3-((methyl(phenyl)carbamoyl)oxy)prop-1-yn-1-yl)xanthine] | > 5
CN(CC#Cc1nc2c([nH]1)c(=O)n(C1CC1)c(=O)n2C1CC1)C(=O)Oc1ccc(F)cc1 [Example 1, 1,3-Dicyclopropyl-8-(3-(methyl((4-fluorophenoxy)carbonyl)amino)prop-1-yn-1-yl)xanthine] | > 20
